These results are taken from patent US11654159B2, “Therapeutic use of electroacupuncture-induced mesenchymal stem cells” (UNIVERSITY OF FLORIDA RESEARCH FOUNDATION, INC., priority 2016, dated 2023).

The subject of experiment [1] is MSCs (Lin− CD90+CD44hi cells). Nature of the experiment: Pharmacological disinhibition of the dorsomedial regions of the tuberal hypothalamus: blood cells by flow cytometry. The experiment is classed as in vivo, rat. The note with it: rats. As for the experimental part: Adult male Sprague-Dawley rats (300-350 g; Harlan Laboratories, Indianapolis, Ind.), were housed in plastic cages under standard environmental conditions (22° C.; 12/12 light/dark cycle; lights on at 7:00 A.M.) for 7-10 days prior to the surgical manipulations. Food and water were provided ad libitum. All experiments were conducted in accordance with the Guide for the Care and Use of Laboratory Animals, 8th Edition (Institute for Laboratory Animal Research, The National Academies Press, Washington, D.C., 2011) and the guidelines of the IUPUI Institutional Animal Care and Use Committee.
Once rats were anesthetized with an isoflurane system (MGX Research Machine; Vetamic, Rossville, Ind.), they were placed in a small animal stereotaxic frame (Model 963 Ultra Precise Frame, Kopf, Tujunga, Calif.). […]
(Flow cytometry measures light scatter and fluorescence of single cells or particles in a stream.)

Experiment [2] relates to rat MSCs (Lin− CD90+CD44hi cells). The note with it: rats. Here is the method:
(§1) Sprague-Dawley rats were injected with epinephrine (SO, El Monte, Ca) intraperitoneally at 50 μg/kg. Uninjected rats were used as baseline controls. Rats were euthanized at 2, 4, and 6 hours post injection. Blood was collected and processed for flow cytometry as described below. A separate cohort of rats was injected IP with 50 mg/kg dopamine for 4 days consecutively. After last injection, rats were euthanized at 2 and 4 hours post injection. Blood was collected and processed for flow cytometry as described below.
PBMCs were isolated using lympholyte M (Cedarlene, Ontario, Canada) density gradient separation and centrifuged at room temperature at 740×g for 30 minutes.
PBMCs were stained with the MPFC protocols in real-time within 24 h after blood collection at the Angio BioCore, IUPUI, for the identification of MSCs as previously described.^50-53 23 PBMCs were incubated with Fc blocking reagent (Miltenyi Biotec or BD biosciences) for 10 minutes on ice and stained as published^50. Cells were incubated with titrated antibodies for 30 minutes at 4° C., washed twice in PBS with 2% FBS, fixed in 1% paraformaldehyde (Tousimis, Rockville, Md.), and run on a BD LSRII flow cytometer (BD) equipped with a 405 nm violet laser, 488 nm blue laser and 633 nm red laser. Data were acquired uncompensated and exported as FCS 3.0 files, and analyzed utilizing FlowJo software, version 9.7.5 or version X (Tree Star, Inc, Ashland, Oreg.). “Fluorescent minus one” (FMO) gating controls were used to ensure proper gating of positive events^50,52,54. In order to resolve the rare and/or dim populations of interest, specific antigen and fluorochrome conjugate coupling was optimized for the six-antibody plus a viability marker staining panel^50-54. BD compBeads (BD Biosciences) were used for color compensations.
Rat MSC were gated sequentially on FMO gates for LIVE/DEAD^−CD45^−erythroid cells^−CD31^−CD11b^− CD90^+CD44H^+ cells.

Experiment [3] has as its system plasma NE. The conditions noted are these: rats. Here is the method:
as §1
NE levels were measured in EA-treated horses using NE ELISA kit (ALPCO™, Salem, N.H.) according to the manufacturer's instructions. Plasma NE, Epi and DA levels were measured in EA treated rats using the TriCAT ELISA kit (ALPCO™).

Experiment [4] has as its system MSCs. In words: Propranolol pretreatment before EA: MSC mobilization. The experiment is classed as in vivo, mice. An excerpt:
Blood was collected and processed for flow cytometry as described below.

Turning to `C[N+]1(C)CCc2cc3c(cc2[C@H]1[C@@H]1OC(=O)c2c1ccc1c2OCO1)OCO3.[I-]` [bicuculline methiodide], the “total number of cells in the blood” value in experiment [1] (30 pmol into tuberal hypothalamus, p=0.412) is listed as “did not alter”. Besides, the “percentage of MSCs (Lin− CD90+CD44hi cells)” value in experiment [1] (highest dose 50 pmol, 4 hours post injection, p=0.027) is on record as “did increase”.

As to `NCCc1ccc(O)c(O)c1` [dopamine], in experiment [2] (dopamine IP), the “time of increase in circulating MSCs” value was determined as 2 h. The NE levels result in experiment [3] (dopamine 50 mg/kg for 4 consecutive days) is reported as “pointed increase”. The “time of peak in plasma NE concentration post administration” value in experiment [3] (dopamine IP) was determined as 2 h.

Consider `CNC[C@H](O)c1ccc(O)c(O)c1` [epinephrine], for which, in experiment [2] (epinephrine 50 μg/kg intraperitoneally, vs uninjected baseline, p=0.0125), the “MSCs in peripheral blood” value is recorded as “significant elevation”. In experiment [2] (epinephrine IP), the “time of increase of rat MSCs in the circulation” value amounted to 6 h.

Regarding `CC(C)NCC(O)COc1cccc2ccccc12` (stereo not drawn) [propranolol], the “mobilization of MSCs by EA” value in experiment [4] (mice pretreated for 24 hours prior to EA, p<0.01) is listed as “prevented”. In experiment [4] (pretreatment, at 4 hours, compared to untreated animals, p=0.01), the “MSC mobilization by EA” value is given as “inhibited”.
